Measured values from article PMC4735555, “Crystal structure of the N-myristoylated lipopeptide-bound MHC class I complex” (Nature Communications, 2016).

Experiments:
2N5.1 = 2N5.1 response to C14nef5 in the presence of rhesus PBMCs and its blocking by mAbs; format: cell-based, rhesus macaque; conditions: rhesus PBMCs derived from a positive donor
Method: The rhesus macaques (Macaca mulatta) used in this study were treated humanely in accordance with institutional regulations, and the experimental protocols were approved by the Committee for Experimental Use of Non-human Primates at the Institute for Virus Research and at the Primate Research Institute, Kyoto University. Rhesus macaque monocytes were isolated from PBMCs using MACS MicroBeads (Miltenyi Biotec, Bergisch Gladbach, Germany) conjugated with cross-reactive anti-human CD14 Abs. After immunizing BALB/c mice with these monocytes, spleen cells were obtained and fused with SP2/0 myeloma cells using the standard polyethylene glycol method. Culture supernatants of the hybridoma clones were tested at a dilution of 1:1 for their reactivity to rhesus macaque monocytes by flow cytometry and positive clones were subjected to T-cell assays to assess blocking activities.

2N5.1 TCR = assay: SPR binding of soluble 2N5.1 TCR to antigen-loaded Mamu-B*098; design: species or system rhesus macaque; conditions: in words; Biacore 3000, 30 °C; soluble 2N5.1 TCR αβ dimer; lipopeptide-loaded Mamu-B*098 immobilized; pH 7.5
Source text: Single-chain MHC proteins in which β2m was linked via a Gly-Ser linker (GGGGSGGSGSGGGSS) to the ectodomain of either Mamu-B*098 or Mamu-A*02, followed by a biotinylation sequence peptide (LHHILDAQKMVWNHR), were also expressed in E. coli and were purified in a similar manner to the trimer complex of Mamu-B*098, β2m and C14nef5. The β2m-linked Mamu-B*098 protein was refolded without C14nef5, whereas the β2m-linked Mamu-A*02 protein was refolded in the presence of the YY9 peptide (YTSGPGIRY). These recombinant proteins (3 mg) were biotinylated by being incubated for 12 h at 20 °C with 2 μg of BirA enzyme (Sigma-Aldrich, St Louis, MO) in a biotinylation buffer containing 100 mM Tris-HCl pH 8.0, 5 mM MgCl2, 4.5 mM ATP and 4 mM D-biotin, and were purified by size-exclusion chromatography.
TCR dimers were generated by the disulfide-linked TCR method. […]
The binding of ligands to MHC class I molecules was analysed using the Octet RED96 system equipped with a streptavidin-conjugated biosensor (Pall ForteBio, Menlo Park, CA) according to the manufacturer's instructions. […] After reference subtraction, binding signals were analysed using the BIAevaluation 3.1 software. […]

C14-Gly-Gly-Ala-Ile-Ser [C14nef5, N-myristoylated 5-mer peptide (C14-Gly-Gly-Ala-Ile-Ser; C14nef5) derived from the SIV Nef protein]
2N5.1 response (IFN-γ production) in the presence of rhesus PBMCs (2N5.1): responded to C14nef5 | interaction of 2N5.1 TCR with lipopeptide-loaded Mamu-B*098 (SPR) (2N5.1 TCR): high-affinity interaction
